Data on one compound can be found in patent publication US10695282B2, “Functionalized transition metal dichalcogenides and composition for antioxidation containing the same” (AMOREPACIFIC CORPORATION, priority 2017, dated 2020).

Series [1] is described as follows: ABTS assay, antioxidant activity of TMDs functionalized in aqueous solution. Format: biochemical. Particulars: TMDs functionalized with PCL-b-PEO in aqueous solution; absorbance change at 734 nm after 12 hours; FIG. 9A; read-out: IC50 (ABTS radical scavenging). As for the experimental part: Specifically, the antioxidant activity of four types of TMDs (MoS2, WS2, MoSe2, and WSe2) functionalized with an amphiphilic block polymer compound in an aqueous solution and Trolox (vitamin E) were measured by an ABTS (2,2′-azino-bis-(3-ethylbenzothiazoline-6-sulfonic acid)) assay.
Specifically, 7 mM 2,2′-azino-bis-(3-ethylbenzothiazoline-6-sulfonic acid) (ABTS) and 2.45 mM potassium persulfate were mixed to make the final concentration and left in a dark place at room temperature for 24 hours. Then, the mixture was diluted with distilled water so that the absorbance value at 734 nm was […]. 100 μl of the sample of each concentration was added to 100 μl of the diluted ABTS radical solution, followed by mixing. After 12 hours, the change of absorbance was measured. The same amount of Trolox as a standard material was added for measurement.

Series [2] can be described thus: Photostability of antioxidant activity under solar simulator (ABTS assay). It is filed as physicochemical. Particulars: after 3 hours, FIG. 9B.

As a reminder, the IC50 is the concentration that inhibits the measured activity by half.

For `Cc1c(C)c2c(c(C)c1O)CCC(C)(C(=O)O)O2` (centres unmarked) [Trolox], the IC50 in series [1] is 11.7 µM. Also, the “antioxidant activity remaining under light” value in series [2] is 50%.
